Converted amounts (≈) assume the structure as drawn.
Conditions: 25 °C

First: COP(=O)(NC(C)=O)SC (stereo not drawn)
Second: CNC(=O)Oc1ccc(SC)c(C)c1
The solubility of the first is 42000-fold higher: 4470 mM (≈ 818000 µg/mL) for the first, 0.107 mM (≈ 22.5 µg/mL) for the second.

Compared with `COC(=O)c1ccccc1CS(=O)(=O)NC(=O)Nc1nc(OC)cc(OC)n1`, `COC(=O)Nc1cccc(OC(=O)Nc2cccc(C)c2)c1` is 18-fold lower in solubility: 0.292 mM (≈ 120 µg/mL) for the first, 0.0161 mM (≈ 4.85 µg/mL) for the second.

`c1ccc2[nH]c(-c3cscn3)nc2c1` and `CC(C)(C)C(=O)C(Oc1ccc(Cl)cc1)n1cncn1` (stereo not drawn) are within 1.5-fold of each other in solubility: 0.248 mM (≈ 50 µg/mL) for the first, 0.243 mM (≈ 71.5 µg/mL) for the second.

Compared with `CC(C)C(Nc1ccc(C(F)(F)F)cc1Cl)C(=O)OC(C#N)c1cccc(Oc2ccccc2)c1` (stereo not drawn), `CC(C)[C@H](C(=O)OC(C#N)c1cccc(Oc2ccccc2)c1)c1ccc(OC(F)F)cc1` (stereo partly drawn) is 21-fold higher in solubility: 6.29e-06 mM (≈ 0.00316 µg/mL) for the first, 0.000133 mM (≈ 0.06 µg/mL) for the second.

Going from `Cn1c(=O)on(-c2ccc(Cl)c(Cl)c2)c1=O` to `CC(C)NC(=O)N1CC(=O)N(c2cc(Cl)cc(Cl)c2)C1=O`, the solubility rises from 0.00575 mM (≈ 1.5 µg/mL) to 0.0421 mM (≈ 13.9 µg/mL) (7.3-fold).

Going from `O=C1C2CC=CCC2C(=O)N1SC(Cl)(Cl)Cl` (stereo not drawn) to `CCN(CC)C(=O)SCc1ccc(Cl)cc1`, the solubility rises from 0.017 mM (≈ 5.1 µg/mL) to 0.109 mM (≈ 28 µg/mL) (6.4-fold).

Compound `CCCSP(=O)(OCC)SCCC` has a solubility of 3.09 mM (≈ 750 µg/mL).

Reference: the OPERA property sets (Mansouri et al. 2018)
